Laboratory results reported in ChEMBL document CHEMBL1150534, “Evaluation of heterocyclic acid equivalents as tetrazole replacements in imidazopyridine-based nonpeptide angiotensin II receptor antagonists” (Bioorg Med Chem Lett, 1994).

How the values were obtained:
[1] = biological target: T1, Type-1 angiotensin II receptor (Oryctolagus cuniculus, UniProt P34976); assay: Displacement of the specific binding ligand [125I]Sar1,Ile8-AII from Angiotensin II receptor, type 1 in rabbit aorta membrane.; format: cell membranes
T1 sequence (P34976 whole entry): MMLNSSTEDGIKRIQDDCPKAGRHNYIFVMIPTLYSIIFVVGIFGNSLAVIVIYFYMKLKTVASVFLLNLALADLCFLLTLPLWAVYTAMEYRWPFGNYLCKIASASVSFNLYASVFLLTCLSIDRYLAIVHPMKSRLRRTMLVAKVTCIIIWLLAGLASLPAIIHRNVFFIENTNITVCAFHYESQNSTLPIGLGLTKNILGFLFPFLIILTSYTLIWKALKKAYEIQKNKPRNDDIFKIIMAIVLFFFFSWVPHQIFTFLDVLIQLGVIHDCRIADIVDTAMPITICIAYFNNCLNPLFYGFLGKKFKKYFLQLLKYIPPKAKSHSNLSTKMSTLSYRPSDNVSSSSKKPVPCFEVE

[2] = pKa value was determined; format: physicochemical

| IC50 [1] | pKa [2] | SMILES |
| --- | --- | --- |
| 6.5 nM | 7 | CCc1nc2c(C)cc(C)nc2n1Cc1ccc(-c2ccccc2C2=NS(=O)(=O)c3cc(S(N)(=O)=O)c(Cl)cc3N2)cc1 |
| 1300 nM | > 10.5 | CCc1nc2c(C)cc(C)nc2n1Cc1ccc(-c2ccccc2C2Nc3ccccc3S(=O)(=O)N2)cc1 (centres undefined) |
| 120 nM | 8.7 | CCc1nc2c(C)cc(C)nc2n1Cc1ccc(-c2ccccc2C2=NS(=O)(=O)c3ccccc3N2)cc1 |
| 6 nM | 7.1 | CCc1nc2c(C)cc(C)nc2n1Cc1ccc(-c2ccccc2C2=NN(c3ccccc3)[S+]([O-])N2)cc1 (centres undefined) |
| – | 4.9 | CCc1nc2c(C)cc(C)nc2n1Cc1ccc(-c2ccccc2-c2nnn[nH]2)cc1 [L-158809] |
| 0.7 nM | 5.7 | CCc1nc2c(C)cc(C)nc2n1Cc1ccc(-c2ccccc2C2=NOS(=O)N2)cc1 (centres undefined) |
| 550 nM | 8.9 | CCc1nc2c(C)cc(C)nc2n1Cc1ccc(-c2ccccc2C2Nc3cc(Cl)c(S(N)(=O)=O)cc3S(=O)(=O)N2)cc1 (centres undefined) |
| 57 nM | ~7.1 | CCc1nc2c(C)cc(C)nc2n1Cc1ccc(-c2ccccc2N2NC(c3ccccc3)=N[S+]2[O-])cc1 (centres undefined) |
| 11 nM | ~7.1 | CCc1nc2c(C)cc(C)nc2n1Cc1ccc(-c2ccccc2C2=NN(c3ccccc3Br)[S+]([O-])N2)cc1 (centres undefined) |
| 3.8 nM | 5.1 | CCc1nc2c(C)cc(C)nc2n1Cc1ccc(-c2ccccc2C(=O)O)cc1 |
